Where two headings read alike, the source gives them in different places. Marks after values point to notes of the source that are not given here.
Assays:
eye = conditions: cited from earlier work; for eye irritation category as stated in text and figure legends: control chemicals and chemicals of FIG. 1 and FIG. 2; for UN GHS: Table 1, list of liquid products studied; for GHS Class: Table 6, list of solid chemicals studied
[1] = system: reconstructed human corneal epithelium model (SkinEthic™ HCE)
Excerpt: The reconstructed human corneal epithelium model, (SkinEthic™ HCE) was purchased from Episkin in Lyon. The model consists of immortalized human corneal epithelial cells grown in a defined medium at the air-liquid interface. The tissue structure obtained is a multi-layer epithelium similar to the natural tissue structure of the human cornea, comprising 5-7 layers with a surface area of 0.5 cm^2.
Polyhedral cells and wing cells are also present. The tissue also comprises specific ultrastructures such as intermediate filaments, mature hemidesmosomes and desmosomes. […] The tissues are shipped on a semi-solid layer of agarose culture medium. Upon receipt, the tissues are transferred to maintenance medium (1 ml/well) in 6-well plates and incubated in a climatic chamber at 37° C., 5% CO2. The tissues are used 24 hours later.
Liquid products are tested for solubility in phosphate-buffered saline (PBS) or olive oil. In summary, 100 μl of the test product is mixed with 200 μl of PBS or olive oil.
The sample is mixed on a vortex mixer. Turbidity and possible phase separation are assessed by eye. The products are tested pure or diluted to 30%. Products that are not soluble in PBS or olive oil cannot be tested at 30%.
The procedure for applying liquid products to the tissues was optimized as follows: the chemicals are tested at two concentrations, 100% and 30%. In summary, the tissue surface is moistened by adding 20 μl of PBS at 37° C. and incubation for 10 min at 37° C./5% CO2. The corneal epithelia are then treated topically with 50±2 μL of the test product (corresponding to 100 μL/cm2) and incubated for 10 min at room temperature. The tissues are then washed with sterile PBS (2×25 ml) at 37° C. PBS is applied to the edge of the insert (not directly on the tissue) to create a gentle vortex that removes the chemical. The tissues on their inserts are then “embedded” in 5 ml of maintenance medium at room temperature for 30 min in order to remove as much as possible of the product remaining on the tissue surface. The medium is then removed by gently tapping the insert on absorbent paper, and 50 μl of maintenance medium at 37° C. is added. The inserts are then incubated for 6 h at 37° C./5% CO2.
In summary, corneal tissues are recovered with forceps and placed in tubes for rapid freezing in liquid nitrogen. The RNA is then extracted by the QIAzol technique (Qiagen, Courtaboeuf, France) with an “RNeasy Mini Kit” according to the manufacturer's instructions. In summary, the tissues are placed in 1 ml of QIAzol and homogenized using the TissueLyser II (Qiagen, Courtaboeuf, France) with 2 steel beads. After centrifugation, the supernatant is collected and 0.2 ml of bromochloro propane (Sigma, France) is added, then the whole is vigorously mixed. The homogenate is centrifuged at 12,000 g for 15 min at 4° C. The upper phase (aqueous phase) is added to 600 μl of 70% ethanol and immediately mixed by pipetting. The mixture is transferred to an RNeasy spin column placed on a 2 ml collection tube and the RNA is collected according to the manufacturer's instructions (Qiagen, Courtaboeuf, France).
In summary, the transcription of total RNA is performed with 1 μg of total RNA in a final volume of 20 μl using “Random Primers” (Invitrogen, France) and “SuperScript III Reverse Transcriptase” (Invitrogen, France) according to the manufacturer's instructions. Quantitative RT-PCR uses a PCR reagent mix: SYBR Green Real-Time PCR Master Mix (ROCHE, France) with 0.4 μM of each nucleotide primer in a final volume of 25 μl. The reaction is performed in an LC480 System (ROCHE, France). The amplification program comprises a cycle at 95° C. for 1 min, followed by 40 cycles with denaturation at 95° C. for 15 s, a hybridization and amplification phase at 60° C. for 15 s, followed by a final elongation phase at 72° C. for 40 s.

[2] = Table 3, results obtained by the Draize test, liquid products
[3] = liquid products, category from LII at 100% and 30%

Row | Compound | UN-GHS (eye; [2]) | EIT prediction [1, 3] | other results
1 | CCCCCCC(C=O)=Cc1ccccc1 [alpha hexyl cinnamaldehyde] | – | – | eye irritation category as stated in text and figure legends (eye): category 2
2 | Triton X-100 [Triton X-100 10%] | Cat 1 | Cat 1 | UN GHS (eye): Cat 1
3 | CCCC(C)CO (stereo not shown) [2-Methyl-1-pentanol] | Cat 2B | – | eye irritation category as stated in text and figure legends (eye): Category 2; EIT prediction ([1]; human, 10 min): Cat 2
4 | C=CCO [Allyl alcohol] | Cat 2A | Cat 2 | –
5 | CC(O)CC(C)O (stereo not shown) [2,4-Pentanediol] | No Cat | – | eye irritation category as stated in text and figure legends (eye): No category; EIT prediction [1]: No Cat
6 | O=C(O)Cc1cccc2ccccc12 [1-Naphthalene acetic acid] | – | – | UN-GHS (eye; Draize test classification): Cat 1; GHS Class (eye): Cat 1
7 | CCCCCCCCCCCCOS(=O)(=O)[O-].[Na+] [sodium lauryl sulfate (15%), sodium lauryl sulfate] | – | – | eye irritation category as stated in text and figure legends (eye): category 1
8 | CCCCCCCCCCCCOS(=O)(=O)[O-].[Na+] [Sodium lauryl sulfate 3%, Sodium lauryl sulfate] | – | No Cat | –
9 | Benzalkonium chloride [Benzalkonium chloride 5%] | Cat 1 | Cat 1 | UN GHS (eye): Cat 1
10 | CC(C)C=O [iso-Butanal] | Cat 2B | Cat 2 | –
11 | OCC(O)CO [Glycerol] | – | – | eye irritation category as stated in text and figure legends (eye): No category; EIT prediction [1]: No Cat
12 | CCCSSCCC [Dipropyl disulfide] | No Cat | – | EIT prediction [1]: No Cat
13 | CCOC(=O)C(C)C(C)=O (stereo not shown) [Ethyl-2-methylacetoacetate] | Cat 2B | – | EIT prediction ([1]; human, 10 min): Cat 2*
14 | O=C1CCCO1 [Gamma-butyrolactone] | Cat 2A | Cat 2 | –
15 | CC(C)=O [Acetone 100%, Acetone] | Cat 2A | Cat 2 | eye irritation category as stated in text and figure legends (eye): category 2
16 | CC(C)(C)CC(C)(C)c1cc(Cc2cc(C(C)(C)CC(C)(C)C)cc(-n3nc4ccccc4n3)c2O)c(O)c(-n2nc3ccccc3n2)c1 [2,2′-Methylene-bis-(6-(2H-benzotriazol-2-yl)-4-(1,1,3,3-tetramethylbutyl)phenol)] | – | – | GHS Class (eye): No cat; eye irritation category as stated in text and figure legends (eye): No category
17 | CCN(CC)CCC#N [Diethylaminopropionitrile] | Cat 1 | Cat 1 | UN GHS (eye): Cat 1
18 | C=C(C)C(=O)OCCOCC [2-Ethoxyethyl methacrylate] | No Cat | – | EIT prediction [1]: No Cat
19 | Triton X100 [Triton X100 5%] | Cat 2A | Cat 2 | –
20 | Triton X100 [Triton X100 1%] | No Cat | No Cat | –
21 | CO[Si](CCCNCCN)(OC)OC [[3-(2-Aminoethylamino)propyl]trimethoxysilane] | cat 1 | – | UN GHS (eye): Cat 1; EIT prediction ([1]; human, 10 min): Cat 1
22 | CCCOCC(C)O (stereo not shown) [Propasol Solvent P] | Cat 2A | Cat 1 | –

Row | Compound | UN-GHS (eye; [2]) | EIT prediction [1, 3] | other results
23 | 1-Ethyl-3-methylimidazolium ethylsulfate | No Cat | No Cat* | –
24 | O=C(Cl)c1c(Cl)cccc1Cl [2,6-Dichlorobenzoyl chloride] | Cat 2A | – | EIT prediction ([1]; human, 10 min): Cat 2
25 | Oc1cccc2c(O)cccc12 [1,5-Naphthalenediol] | – | – | UN-GHS (eye; Draize test classification): Cat 2A; GHS Class (eye): Cat 2A; eye irritation category as stated in text and figure legends (eye; listed as naphthalene dione): Category 2
26 | C=CCCCCCCC=C [1,9-Decadiene] | No Cat | – | EIT prediction [1]: No Cat
27 | O=C(O)CO [Glycolic acid (10%), Glycolic acid] | Cat 2B | – | –
28 | CC(C)(C)CC(C)(C)c1ccc(OCCOCC[N+](C)(C)Cc2ccccc2)cc1 [Benzethonium chloride 10%, Benzethonium chloride] | – | Cat 1 | –
29 | Triton X100 [Triton X100 10%] | Cat 1 | Cat 1 | UN GHS (eye): Cat 1
30 | [Na+].[OH-] [Sodium hydroxide 0.3%, Sodium hydroxide] | Cat 2A | Cat 2 | –
31 | N=C(NCCCCCCNC(=N)NC(=N)Nc1ccc(Cl)cc1)NC(=N)Nc1ccc(Cl)cc1.O=C(O)[C@H](O)[C@@H](O)[C@H](O)[C@H](O)CO.O=C(O)[C@H](O)[C@@H](O)[C@H](O)[C@H](O)CO [Chlorhexidine gluconate (20%), Chlorhexidine gluconate] | Cat 2A | Cat 2 | –
32 | CCN(CC)C(=O)c1cccc(C)c1 [Diethyl toluamide] | Cat 2B | – | EIT prediction ([1]; human, 10 min): Cat 2
33 | CCCCCCCCCCCCCCCC[N+](C)(C)C.[Br-] [Hexadecyltrimethylammonium bromide 6%, Hexadecyltrimethylammonium bromide] | Cat 1 | – | UN GHS (eye): Cat 1; EIT prediction ([1]; human, 10 min): Cat 1
34 | C=CC(=O)OCCOCCOCCOCCOC(=O)C=C [Tetraethylene glycol diacrylate] | Cat 1 | – | UN GHS (eye): Cat 1; EIT prediction ([1]; human, 10 min): Cat 2
35 | OCCCCCCCCCl [1-Chloroctan-8-ol] | Cat 1 | Cat 1 | UN GHS (eye): Cat 1
36 | CCCCCCCC[Si](OC)(OC)OC [Octyltrimethoxysilane (SILAN 108), Octyltrimethoxysilane] | No Cat | – | EIT prediction [1]: No Cat*
37 | benzalkonium chloride [benzalkonium chloride (10%)] | – | – | eye irritation category as stated in text and figure legends (eye): category 1
38 | N#CCCCl [3-Chloropropionitrile] | Cat 2B | Cat 2 | –
39 | CCCCCCBr [n-Hexyl bromide] | No Cat | No Cat* | –
40 | [H]/N=C(\N/C(=N/[H])NCCCCCCNC(=N)NC(=N)Nc1ccc(Cl)cc1)Nc1ccc(Cl)cc1 [Chlorhexidine] | Cat 1 | – | UN GHS (eye): Cat 1; EIT prediction ([1]; human, 10 min): Cat 1
41 | CCC(C)=O [Methyl ethyl ketone] | – | Cat 2 | eye irritation category as stated in text and figure legends (eye): category 2
42 | COC(=O)CS [Methyl thioglycolate] | Cat 1 | – | UN GHS (eye): Cat 1; eye irritation category as stated in text and figure legends (eye): category 1; EIT prediction ([1]; human, 10 min): Cat 1
43 | CC(O)C(=O)O (stereo not shown) [Lactic acid] | Cat 1 | – | UN GHS (eye): Cat 1; eye irritation category as stated in text and figure legends (eye): category 1; EIT prediction ([1]; human, 10 min): Cat 1

— patent US12410472B2, “Method for evaluating the eye irritation potential of chemicals” (IMMUNOSEARCH, priority 2016, dated 2025)
